We go through two compounds from patent US20130040903A1, “PHARMACEUTICAL COMPOSITIONS FOR TREATING DEPRESSION AND ANXIETY” (priority 2007, published 2013).

One test has as its system ICR mice. Nature of the test: Resetpine-induced mouse body temperature decrease experiment (Experiments 2, 5, 7). The following applies: Experiment 5; 3 mg/kg P.O. 7 days; 4 hours after Resetpine 2 mg/kg i.p. It counts as in vivo. As to the method:
2.5.1 Group division and administration of drug: The mice are grouped randomly, and 10 mice are in each group. 1. High dose of Embodiment 1 (80 mg/kg, P.O., administered for 7 days); 2. middle dose of Embodiment 1 (40 mg/kg, P.O., administered for 7 days); 3. low dose of Embodiment 1 (20 mg/kg, P.O., administered for 7 days); 4.
2.5.2 Experimental method: After 1 hour of the last administration of drug on the eighth day, the mouse's anal temperature is determined. Then 2 mg of Resetpine per kilogram of the body weight is given by intraperitoneal injection. After 4 hours of injecting Resetpine, mouse's anal temperature is determined once again. The depth and time of injecting the thermometer into mouse's anus are identical in each temperature measurement.
5.5.1 Group division and administration of drug: The mice are grouped randomly, and 10 mice are in each group. 1. […]
5.5.2 Experimental method: After 1 hour of the last administration of drug on the eighth day, the mouse's anal temperature is determined. […] After 4 hours of injecting Resetpine, mouse's anal temperature is determined once again. […]
2.5.2 Experimental method: After 1 hour of the last administration of drug on the eighth day, the mouse's anal temperature is determined. […] After 4 hours of injecting Resetpine, mouse's anal temperature is determined once again. […]

The subject of the next test is Kunming (KM) mice. Nature of the test: Mouse light-dark transition experiment (Experiments 3, 10). It counts as in vivo. As to conditions: 2.5 mg/kg into the stomach once daily 7 days, within 10 minutes. As to the method: 3.5.1 Group division and administration of drug: The mice are grouped randomly as 5 groups, and 10 mice are in each group. 1. High dose of Embodiment 1 (80 mg/kg); 2. middle dose of Embodiment 1 (40 mg/kg); 3. low dose of Embodiment 1 (20 mg/kg); 4. Diazepam (2.5 mg/kg); and 5. physiological saline (normal saline, NS). The drugs are fed into the mouse stomach once every day, and the mouse is administered for continuous 7 days. In the period of administration, the mouse eats and drinks freely, and the experiment is proceeded after 1 hour of the last administration of drug on the eighth day.
Mouse light-dark transition test: The dark chamber occupies one third of the light-dark transition chamber (44 cm×21 cm×21 cm), and the top is capped. The light chamber occupies two third thereof and is illuminated brightly. […] The times that the mouse enters into the dark chamber and returns to the light chamber within 10 minutes are determined, and the times thereof are being the index for evaluating the anti-anxiety function of the drugs. […]
Mouse light-dark transition test: The dark chamber occupies one third of the light-dark transition chamber (44 cm×21 cm×21 cm), and the top is capped. […] The times that the mouse enters into the dark chamber and returns to the light chamber within 10 minutes are determined, and the times thereof are being the index for evaluating the anti-anxiety function of the drugs.

Turning to `Fc1ccc([C@@H]2CCNC[C@H]2COc2ccc3c(c2)OCO3)cc1` [Paroxetine], the Time of non-movement in the test with ICR mice turned out to be 2.38 ± 0.69 s.

Turning to `CN1C(=O)CN=C(c2ccccc2)c2cc(Cl)ccc21` [Diazepam], the “Times of passing from dark chamber to light chamber” value came to 11.3 ± 4.54 with Kunming (KM) mice (Experiment 3) and 11.7 ± 4.47 with Kunming (KM) mice (Experiment 10).
